# Measurements reported in patent publication US20260176279A1, “DUAL RAF AND TUBULIN INHIBITORS AND METHODS OF USE THEREOF” (Deciphera Pharmaceuticals, LLC, priority 2023, published 2026).
# Read-outs that look alike come from different tables or passages of the source.
# Columns and labels:
# [1] = test system: HCT-116 cells; test: HCT-116 Cell Proliferation Assay; assay type: cell-based; settings: Homo sapiens
# Procedure: HCT-116 cells (catalog #CCL-247) are obtained from the American Type Culture Collect (ATCC, Manassas, VA). Briefly, cells are grown in McCoy's 5A supplemented with 10% characterized fetal bovine serum (Invitrogen, Carlsbad, CA) and 1% Penicillin/Streptomycin/L-Glutamine at 37° C., 5% CO2, and 95% humidity. Cells are expanded until reaching 70-95% confluency at which point they are sub-cultured or harvested for assay use. A serial dilution of test compound is dispensed into a 384-well black clear bottom plate in triplicate. 375 cells are added per well in 50 μL complete growth medium in the 384-well plate. Plates are incubated for 67 to 72 h at 37° C., 5% CO2, and 95% humidity. At the end of the incubation, 40 μL of a […] solution of resazurin (Sigma, St. Louis, MO) in PBS is added to each well of the plate and plates are incubated for an additional 4 to 5 hours at 37° C., 5% CO2, and 95% humidity. Plates are read on a Synergy2 or equivalent reader (Biotek, Winooski, VT) using an excitation of 540 nm and an emission of 600 nm. Data is analyzed using Prism software (Graphpad, San Diego, CA) to calculate IC50 values.
# [2] = test system: HPAF-II cells; test: HPAF-II Cell Proliferation Assay; assay type: cell-based; settings: Homo sapiens
# Procedure: HPAF-II cells (catalog #CRL-1997) are obtained from the American Type Culture Collect (ATCC, Manassas, VA). Briefly, cells are grown in Minimum Essential Media supplemented with 10% characterized fetal bovine serum (Invitrogen, Carlsbad, CA) and 1% Penicillin/Streptomycin/L-Glutamine at 37° C., 5% CO2, and 95% humidity. Cells are expanded until reaching 70-95% confluency at which point they are sub-cultured or harvested for assay use. A serial dilution of test compound is dispensed into a 384-well black clear bottom plate in triplicate. 750 cells are added per well in 50 μL complete growth medium in the 384-well plate. Plates are incubated for 115 to 120 h at 37° C., 5% CO2, and 95% humidity. At the end of the incubation, 40 μL of a […] solution of resazurin (Sigma, St. Louis, MO) in PBS is added to each well of the plate and plates are incubated for an additional 18 to 24 h at 37° C., 5% CO2, and 95% humidity. Plates are read on a Synergy2 or equivalent reader (Biotek, Winooski, VT) using an excitation of 540 nm and an emission of 600 nm. Data is analyzed using Prism software (Graphpad, San Diego, CA) to calculate IC50 values.
# [3] = test system: MiaPaca-2 cells; test: MiaPaca-2 Cell Proliferation Assay; assay type: cell-based; settings: Homo sapiens, MIA PaCa-2
# Procedure: MiaPaca-2 cells (catalog #CRL-1420) are obtained from the American Type Culture Collect (ATTC, Manassas, VA). Briefly, cells were grown in DMEM supplemented with 10% characterized fetal bovine serum (Invitrogen, Carlsbad, CA), 2.5% New Zealand sourced horse serum and 1% Penicillin/Streptomycin/L-Glutamine at 37° C., 5% CO2, and 95% humidity. Cells are expanded until reaching 70-95% confluency at which point they are sub-cultured or harvested for assay use. For assays completed in 96-well plates, a serial dilution of test compound is dispensed into a 96-well black clear bottom plate in triplicate. Three thousand cells are added per well in 200 μL complete growth medium in the 96-well plate. Plates are incubated for 67 to 72 h at 37° C., 5% CO2, and 95% humidity. At the end of the incubation, 40 μL of a […] solution of resazurin (Sigma, St. Louis, MO) in PBS is added to each well of the plate and plates are incubated for an additional 5 to 6 hours at 37° C., 5% CO2, and 95% humidity. For 384-well assays, a threefold, 8-point serial dilution of compound was spotted column wise into a 384 well black, clear bottom, tissue culture treated plate using the Beckman Coulter Echo 650. Likewise, a threefold, 8-point serial dilution of cobimetinib was spotted row wise into the 384 well black, clear bottom plate containing compound. DMSO concentration was constant across all wells at 0.4%. Seven hundred fifty cells are added per well in 50 μL complete growth medium in each 384-well plate. Plates are incubated for 67 to 72 h at 37° C., 5% CO2, and 95% humidity. At the end of the incubation, 10 μL of a 440 μM solution of resazurin (Sigma, St. Louis, MO) in PBS is added to each well of the plate and plates are incubated for an additional 4 to 6 h at 37° C., 5% CO2, and 95% humidity. Plates are read on a Synergy2 or equivalent reader (Biotek, Winooski VT) using an excitation of 540 nm and an emission of 600 nm. Data is analyzed using Prism software (Graphpad, San Diego, CA) to calculate IC50 values.
# [4] = test system: tubulin; test: Cellular Tubulin Polymerization Assay (HCT-116 cells); assay type: cell-based
# [5] = biological target: T1, B-Raf kinase (Homo sapiens, UniProt P15056); test: Biochemical Assay for B-Raf (coupled pyruvate kinase/lactate dehydrogenase assay)
# T1 construct: GST (N); purchased Sigma
# [6] = biological target: T2, C-Raf kinase (Homo sapiens, UniProt P04049, Y340D/Y341D); test: Biochemical Assay for C-Raf (coupled pyruvate kinase/lactate dehydrogenase assay)
# T2 construct: C-Raf residues 306-end; Y340D, Y341D with N-; GST (N); purchased Eurofins
# [7] = Table 3, HCT-116 cells, read-out: Tubulin Cellular IC50
# [8] = HCT-116, Table 3, read-out: HCT-116 IC50
# [9] = Table 1, inhibition of biochemical activity, read-out: BRAF
# [10] = HPAF-II, Table 3, read-out: HPAF-II IC50
# [11] = Table 1, inhibition of biochemical activity, read-out: CRAF
# [12] = Table 2, inhibition of cell proliferation, read-out: MiaPaca-2
# [13] = Table 3, read-out: MiaPaca-2 IC50
# [14] = Table 2, inhibition of cell proliferation, read-out: HCT-116
# [15] = Table 2, inhibition of cell proliferation, read-out: HPAF-II
# [16] = read-out: Tubulin Cellular, Table 5, HCT-116 cells
# [17] = Table 4, HCT-116 cells, read-out: Tubulin Cellular IC50
# [18] = HCT-116, Table 4, read-out: HCT-116 IC50
# [19] = HPAF-II, Table 4, read-out: HPAF-II IC50
# [20] = Table 4, read-out: MiaPaca-2 IC50
# T2 sequence (P04049 307-648 Y340D/Y341D): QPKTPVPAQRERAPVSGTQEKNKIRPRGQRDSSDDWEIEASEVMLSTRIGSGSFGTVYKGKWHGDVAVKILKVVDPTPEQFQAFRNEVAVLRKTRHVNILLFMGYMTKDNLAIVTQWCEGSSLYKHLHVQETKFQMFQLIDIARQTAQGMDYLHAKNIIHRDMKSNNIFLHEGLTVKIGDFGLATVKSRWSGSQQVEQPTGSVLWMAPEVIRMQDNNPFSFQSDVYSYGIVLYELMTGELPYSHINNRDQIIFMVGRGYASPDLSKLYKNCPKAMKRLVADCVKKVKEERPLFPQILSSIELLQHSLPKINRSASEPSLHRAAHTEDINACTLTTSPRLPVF
# T1 sequence (P15056 416-766): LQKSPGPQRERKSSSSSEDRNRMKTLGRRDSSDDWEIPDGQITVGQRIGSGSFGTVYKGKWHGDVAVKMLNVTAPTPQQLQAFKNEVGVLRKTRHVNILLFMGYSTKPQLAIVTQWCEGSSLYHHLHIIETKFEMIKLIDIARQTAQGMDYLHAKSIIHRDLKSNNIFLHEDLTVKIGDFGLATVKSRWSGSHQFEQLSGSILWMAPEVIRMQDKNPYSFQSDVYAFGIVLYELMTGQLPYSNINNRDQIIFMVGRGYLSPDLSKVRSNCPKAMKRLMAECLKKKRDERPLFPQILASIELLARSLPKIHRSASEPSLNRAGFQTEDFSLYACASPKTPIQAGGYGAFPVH
structure (smiles),measurement,setting,value
"Cc1ccc2c(Nc3cccc(Cl)c3F)nccc2c1NC(=O)c1csc2c(N)ncnc12 [Belvarafenib, reference compound]",IC50,"[1]; Table 5, read-out: HCT-116",500 to 1000 nM
same,IC50,"[2]; Table 5, read-out: HPAF-II",1000 to 10000 nM
same,IC50,"[3]; Table 5, read-out: MiaPaca-2",1000 to 10000 nM
Cc1ccc(NC(=O)Nc2ccc(C(F)(F)F)nc2)cc1-c1ccnc(-c2ccnc(NC(=O)CN(C)C)c2)c1 [Example 18],IC50,[4]; [7],100 to 500 nM
same,IC50,[1]; [8],100 to 500 nM
same,IC50,[5]; [9],< 100 nM
same,IC50,"[5]; Table 3, read-out: BRAF IC50",< 100 nM
same,IC50,[2]; [10],100 to 500 nM
same,IC50,[6]; [11],< 100 nM
same,IC50,"[6]; Table 3, read-out: CRAF IC50",< 100 nM
same,IC50,[3]; [12],< 100 nM
same,IC50,[3]; [13],< 100 nM
CNc1cc(-c2cc(-c3cc(NC(=O)Nc4ccc(C(F)(F)F)nc4)ccc3C)ccn2)ccn1 [Example 19],IC50,[4]; [7],< 100 nM
same,IC50,[1]; [8],100 to 500 nM
same,IC50,[1]; [14],100 to 500 nM
same,IC50,[5]; [9],100 to 500 nM
same,IC50,"[5]; Table 3, read-out: BRAF IC50",< 100 nM
same,IC50,[2]; [10],100 to 500 nM
same,IC50,[2]; [15],100 to 500 nM
same,IC50,[6]; [11],< 100 nM
same,IC50,"[6]; Table 3, read-out: CRAF IC50",< 100 nM
same,IC50,[3]; [12],100 to 500 nM
same,IC50,[3]; [13],100 to 500 nM
CNC(=O)c1cc(-c2cc(-c3cc(NC(=O)Nc4ccc(C(F)(F)F)nc4)ccc3C)ccn2)ccn1 [Example 20],IC50,[4]; [7],< 100 nM
same,IC50,[1]; [8],< 100 nM
same,IC50,[1]; [14],< 100 nM
same,IC50,[5]; [9],100 to 500 nM
same,IC50,"[5]; Table 3, read-out: BRAF IC50",100 to 500 nM
same,IC50,[2]; [10],100 to 500 nM
same,IC50,[2]; [15],100 to 500 nM
same,IC50,[6]; [11],< 100 nM
same,IC50,"[6]; Table 3, read-out: CRAF IC50",< 100 nM
same,IC50,[3]; [12],< 100 nM
same,IC50,[3]; [13],< 100 nM
Cc1ccc(NC(=O)Nc2ccc(C(F)(F)F)nc2)cc1-c1ccnc(N2CCOCC2)c1 [Example 36],IC50,[4]; [7],< 100 nM
same,IC50,[1]; [8],< 100 nM
same,IC50,[1]; [14],< 100 nM
same,IC50,[5]; [9],100 to 500 nM
same,IC50,"[5]; Table 3, read-out: BRAF IC50",100 to 500 nM
same,IC50,[2]; [10],< 100 nM
same,IC50,[2]; [15],< 100 nM
same,IC50,[6]; [11],< 100 nM
same,IC50,"[6]; Table 3, read-out: CRAF IC50",100 to 500 nM
same,IC50,[3]; [12],< 100 nM
same,IC50,[3]; [13],< 100 nM
"Cc1ccc(NC(=O)N2CC[C@@H](CC(F)(F)F)C2)cc1-c1cc(N[C@H](C)CO)nc(N2CCOCC2)c1 [Exarafenib, reference compound]",IC50,[4]; [16],1000 to 10000 nM
"C[C@@H](NC(=O)c1ncnc(N)c1Cl)c1ncc(C(=O)Nc2cc(C(F)(F)F)c(Cl)cn2)s1 [Tovorafenib, reference compound]",IC50,[4]; [16],1000 to 10000 nM
Cc1cc(F)c(NC(=O)NCCC(C)(C)C)cc1-c1cc(OCCO)nc(N2CCOCC2)c1 [reference compound],IC50,[4]; [17],1000 to 10000 nM
same,IC50,[1]; [18],1000 to 10000 nM
same,IC50,"[5]; Table 4, read-out: BRAF IC50",< 100 nM
same,IC50,[2]; [19],1000 to 10000 nM
same,IC50,"[6]; Table 4, read-out: CRAF IC50",< 100 nM
same,IC50,[3]; [20],1000 to 10000 nM
CC(=O)Nc1cc(-c2cc(-c3cc(NC(=O)NCCC4(C)CC4)c(F)cc3C)ccn2)ccn1 [reference compound],IC50,[4]; [17],1000 to 10000 nM
same,IC50,[1]; [18],500 to 1000 nM
same,IC50,"[5]; Table 4, read-out: BRAF IC50",< 100 nM
same,IC50,[2]; [19],500 to 1000 nM
same,IC50,"[6]; Table 4, read-out: CRAF IC50",< 100 nM
same,IC50,[3]; [20],1000 to 10000 nM
Cc1ccc(NC(=O)Nc2cccc(C(F)(F)F)c2)cc1-c1cc(OCCO)nc(N2CCOCC2)c1 [reference compound],IC50,[4]; [17],1000 to 10000 nM
same,IC50,[1]; [18],100 to 500 nM
Cc1ccc(NC(=O)NC2CCCCCC2)cc1-c1cc(OCCO)nc(N2CCOCC2)c1 [reference compound],IC50,[1]; [18],1000 to 10000 nM
same,IC50,[2]; [19],1000 to 10000 nM
same,IC50,[3]; [20],1000 to 10000 nM
Cc1ccc(NC(=O)N[C@@H]2CCc3ccccc32)cc1-c1cc(OCCO)nc(N2CCOCC2)c1 [reference compound],IC50,[1]; [18],1000 to 10000 nM
same,IC50,[2]; [19],1000 to 10000 nM
same,IC50,[3]; [20],1000 to 10000 nM
Cc1cc(F)c(NC(=O)Nc2cnn(C(C)(C)C)c2)cc1-c1cc(OCCN(C)C)nc(N2CCOCC2)c1 [reference compound],IC50,[1]; [18],1000 to 10000 nM
same,IC50,[2]; [19],1000 to 10000 nM
same,IC50,[3]; [20],1000 to 10000 nM
Cc1ccc(NC(=O)Nc2cn(C)nc2C(F)(F)F)cc1-c1cc(OCCO)nc(N2CCOCC2)c1 [reference compound],IC50,[1]; [18],1000 to 10000 nM
same,IC50,"[5]; Table 4, read-out: BRAF IC50",1000 to 10000 nM
same,IC50,[2]; [19],1000 to 10000 nM
same,IC50,"[6]; Table 4, read-out: CRAF IC50",1000 to 10000 nM
Cc1ccc(NC(=O)Nc2cnn(CC(F)(F)F)c2)cc1-c1cc(OCCO)nc(N2CCOCC2)c1 [reference compound],IC50,[1]; [18],1000 to 10000 nM
same,IC50,"[5]; Table 4, read-out: BRAF IC50",1000 to 10000 nM
same,IC50,[2]; [19],1000 to 10000 nM
CC(=O)Nc1cc(-c2cc(-c3cc(NC(=O)Nc4ccc(C(F)(F)F)cc4)cnc3C)ccn2)ccn1 [reference compound],IC50,[4]; [17],1000 to 10000 nM
same,IC50,[1]; [18],1000 to 10000 nM
same,IC50,[2]; [19],1000 to 10000 nM
CNC(=O)c1cc(-c2cc(-c3cc(NC(=O)Nc4ccnc(C(C)(C)C#N)c4)ccc3C)ccn2)ccn1 [reference compound],IC50,[4]; [17],1000 to 10000 nM
same,IC50,[1]; [18],1000 to 10000 nM
same,IC50,[3]; [20],500 to 1000 nM
CNC(=O)c1cc(-c2cnnc(-c3cc(NC(=O)N4CCC(C(C)(C)C)C4)ccc3C)c2)ccn1 (stereo not shown) [reference compound],IC50,[1]; [18],1000 to 10000 nM
same,IC50,[2]; [19],1000 to 10000 nM
same,IC50,[3]; [20],1000 to 10000 nM
CNC(=O)c1cc(-c2cc(-c3cc(NC(=O)NC4CCCCC4)c(F)cc3C)cc(OCCO)n2)ccn1 [reference compound],IC50,[1]; [18],1000 to 10000 nM
same,IC50,[2]; [19],1000 to 10000 nM
